Measured values taken from patent publication US11884676B2, “Substituted pyrimido[1,2-b]pyridazines as positive allosteric modulators of the muscarinic acetylcholine receptor M4” (Vanderbilt University, priority 2020, dated 2024).
pEC50: −log10 of the molar value.

Molecular target: T1, Human M4 (Homo sapiens, UniProt P08173)
T1 construct: expressed in transfected cells
T1 sequence (P08173 1-479): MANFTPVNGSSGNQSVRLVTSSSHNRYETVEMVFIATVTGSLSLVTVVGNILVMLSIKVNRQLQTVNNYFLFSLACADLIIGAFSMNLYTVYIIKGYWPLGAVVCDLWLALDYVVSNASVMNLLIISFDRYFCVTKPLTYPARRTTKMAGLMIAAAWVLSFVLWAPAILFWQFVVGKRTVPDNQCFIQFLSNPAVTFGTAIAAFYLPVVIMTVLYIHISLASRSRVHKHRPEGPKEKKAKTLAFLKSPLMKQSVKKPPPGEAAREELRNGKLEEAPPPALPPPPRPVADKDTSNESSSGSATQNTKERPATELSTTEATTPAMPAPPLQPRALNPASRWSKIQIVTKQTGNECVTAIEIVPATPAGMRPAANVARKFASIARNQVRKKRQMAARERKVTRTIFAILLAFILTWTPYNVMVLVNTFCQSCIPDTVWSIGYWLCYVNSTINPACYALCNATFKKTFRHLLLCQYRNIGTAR
Experiment: mAChR M4 cell-based functional assay (calcium flux, PAM mode)
Parameters: Emax: dose or concentration left out as unconfirmed
Settings: for Emax at 30 µM: CHO-K1, % ACh maximum at 30 μM; for Emax at 30 µM / pEC50: hM4-Gqi5 CHO-K1 cells; for pEC50: concentration-dependent increase in the EC20 acetylcholine response
Procedure, shortened: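 CHO-K1 cells stably co-expressing human M4 and chimeric Gqi5, Fluo-4 loaded; compound added first (11-point, 1:3 CRC), then EC20 acetylcholine at 144 s and EC80 at 230 s. PAM activity read on FDSS as concentration-dependent increase of EC20 ACh calcium response; EC50 and Emax from four-parameter logistic fit.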

| Emax at 30 µM | pEC50 | Compound | Emax (CHO-K1, read-out: Human M4 Emax (%)*) |
| --- | --- | --- | --- |
| 84% | 7.52 | [2H]C1(Oc2ccc3c(c2)OC([2H])([2H])C([2H])([2H])O3)CCN(c2nn3c(=O)cc(C)nc3c(C)c2C)CC1 [Compound 94, 7-(4-((2,3-dihydrobenzo[b][1,4]dioxin-6-yl-2,2,3,3-d4)oxy)piperidin-1-yl-4-d)-2,8,9-trimethyl-4H-pyrimido[1,2-b]pyridazin-4-one] | – |
| 87% | 7.14 | [2H]C1(Oc2ccc3c(c2)OC([2H])([2H])C([2H])([2H])O3)CCN(c2nn3c(=O)cc(C(F)(F)F)nc3c(C)c2C)CC1 [Compound 95, 7-(4-((2,3-dihydrobenzo[b][1,4]dioxin-6-yl-2,2,3,3-d4)oxy)piperidin-1-yl-4-d)-8,9-dimethyl-2-(trifluoromethyl)-4H-pyrimido[1,2-b]pyridazin-4-one] | – |
| 85% | 7.00 | [2H]C1(Oc2ccc3c(c2)OC([2H])([2H])C([2H])([2H])O3)CCN(c2nn3c(=O)cc(C(C)C)nc3c(C)c2C)CC1 [Compound 96, 7-(4-((2,3-dihydrobenzo[b][1,4]dioxin-6-yl-2,2,3,3-d4)oxy)piperidin-1-yl-4-d)-2-isopropyl-8,9-dimethyl-4H-pyrimido[1,2-b]pyridazin-4-one] | – |
| 78% | 6.37 | [2H]C1(Oc2ccc3c(c2)OC([2H])([2H])C([2H])([2H])O3)CCN(c2nn3c(=O)ccnc3c(C3CC3)c2C)CC1 [Compound 97, 9-cyclopropyl-7-(4-((2,3-dihydrobenzo[b][1,4]dioxin-6-yl-2,2,3,3-d4)oxy)piperidin-1-yl-4-d)-8-methyl-4H-pyrimido[1,2-b]pyridazin-4-one] | – |
| 90% | 7.19 | [2H]C1(Oc2ccc3c(c2)OC([2H])([2H])C([2H])([2H])O3)CCN(c2nn3c(=O)cc(CC)nc3c(C)c2C)CC1 [Compound 98, 7-(4-((2,3-dihydrobenzo[b][1,4]dioxin-6-yl-2,2,3,3-d4)oxy)piperidin-1-yl-4-d)-2-ethyl-8,9-dimethyl-4H-pyrimido[1,2-b]pyridazin-4-one] | – |
| 90% | 6.88 | [2H]C1([2H])Oc2ccc(OC3CCN(c4nn5c(=O)cc(C(C)C)nc5c(C)c4C)CC3)cc2OC1([2H])[2H] [Compound 99, 7-(4-((2,3-dihydrobenzo[b][1,4]dioxin-6-yl-2,2,3,3-d4)oxy)piperidin-1-yl)-2-isopropyl-8,9-dimethyl-4H-pyrimido[1,2-b]pyridazin-4-one] | – |
| 89% | 7.28 | [2H]C1([2H])Oc2ccc(OC3CCN(c4nn5c(=O)cc(CC)nc5c(C)c4C)CC3)cc2OC1([2H])[2H] [Compound 100, 7-(4-((2,3-dihydrobenzo[b][1,4]dioxin-6-yl-2,2,3,3-d4)oxy)piperidin-1-yl)-2-ethyl-8,9-dimethyl-4H-pyrimido[1,2-b]pyridazin-4-one] | – |
| 81% | 5.83 | [2H]C1(Oc2ccc3c(c2)OC([2H])([2H])C([2H])([2H])O3)CCN(c2nn3c(=O)cc(CC4CCCC4)nc3c(C)c2C)CC1 [Compound 101, 2-(cyclopentylmethyl)-7-(4-((2,3-dihydrobenzo[b][1,4]dioxin-6-yl-2,2,3,3-d4)oxy)piperidin-1-yl-4-d)-8,9-dimethyl-4H-pyrimido[1,2-b]pyridazin-4-one] | – |
| 94% | 6.77 | [2H]C1(Oc2ccc3c(c2)OC([2H])([2H])C([2H])([2H])O3)CCN(c2nn3c(=O)ccnc3c(C)c2COC)CC1 [Compound 102, 7-(4-((2,3-dihydrobenzo[b][1,4]dioxin-6-yl-2,2,3,3-d4)oxy)piperidin-1-yl-4-d)-8-(methoxymethyl)-9-methyl-4H-pyrimido[1,2-b]pyridazin-4-one] | – |
| 78% | 6.34 | [2H]C1(Oc2ccc3c(c2)OC([2H])([2H])C([2H])([2H])O3)CCN(c2nn3c(=O)ccnc3c(COC)c2C)CC1 [Compound 103, 7-(4-((2,3-dihydrobenzo[b][1,4]dioxin-6-yl-2,2,3,3-d4)oxy)piperidin-1-yl-4-d)-9-(methoxymethyl)-8-methyl-4H-pyrimido[1,2-b]pyridazin-4-one] | – |
| 87% | 5.85 | [2H]C1(Oc2ccc3c(c2)OC([2H])([2H])C([2H])([2H])O3)CCN(c2nn3c(=O)ccnc3c(C)c2C2CC2)CC1 [Compound 104, 8-cyclopropyl-7-(4-((2,3-dihydrobenzo[b][1,4]dioxin-6-yl-2,2,3,3-d4)oxy)piperidin-1-yl-4-d)-9-methyl-4H-pyrimido[1,2-b]pyridazin-4-one] | – |
| 81% | 5.77 | [2H]C1([2H])Oc2ccc(OC3CCN(c4nn5c(=O)ccnc5c(C)c4C4CC4)CC3)cc2OC1([2H])[2H] [Compound 105, 8-cyclopropyl-7-(4-((2,3-dihydrobenzo[b][1,4]dioxin-6-yl-2,2,3,3-d4)oxy)piperidin-1-yl)-9-methyl-4H-pyrimido[1,2-b]pyridazin-4-one] | – |
| 99% | – | Cc1cc2nccc(=O)n2nc1N1CC[C@H](Oc2ccc3c(c2)OCCO3)C[C@H]1C [Compound 108, 7-((2R,4S)-4-((2,3-Dihydrobenzo[b][1,4]dioxin-6-yl)oxy)-2-methylpiperidin-1-yl)-8-methyl-4H-pyrimido[1,2-b]pyridazin-4-one] | – |

The remaining lines, values behind:

| Compound | Emax at 30 µM | pEC50 | Emax (CHO-K1, read-out: Human M4 Emax (%)*) |
| --- | --- | --- | --- |
| Cc1c(N2CCC(Oc3ccc(C(F)(F)F)cc3)CC2)nn2c(=O)cc(C(F)F)nc2c1C [Compound 81, 2-(difluoromethyl)-8,9-dimethyl-7-(4-(4-(trifluoromethyl)phenoxy)piperidin-1-yl)-4H-pyrimido[1,2-b]pyridazin-4-one] | 73% | 5.64 | – |
| Cc1cc(=O)n2nc(N3CCC(Oc4ccc5c(c4)CCNC5=O)CC3)c(C)cc2n1 [Compound 82, 2,8-dimethyl-7-(4-((1-oxo-1,2,3,4-tetrahydroisoquinolin-6-yl)oxy)piperidin-1-yl)-4H-pyrimido[1,2-b]pyridazin-4-one] | 74% | 5.48 | – |
| Cc1c(N2CCC(Oc3ccc(F)cc3)CC2)nn2c(=O)ccnc2c1C [Compound 83, 7-(4-(4-fluorophenoxy)piperidin-1-yl)-8,9-dimethyl-4H-pyrimido[1,2-b]pyridazin-4-one] | 89% | 6.73 | – |
| Cc1c(N2CCC(Oc3ccc(F)cc3)CC2)nn2c(=O)cc(C(F)F)nc2c1C [Compound 84, 2-(difluoromethyl)-7-(4-(4-fluorophenoxy)piperidin-1-yl)-8,9-dimethyl-4H-pyrimido[1,2-b]pyridazin-4-one] | 86% | 6.85 | – |
| Cc1ccc(OC2CCN(c3nn4c(=O)cc(C(F)F)nc4c(C)c3C)CC2)cc1 [Compound 85, 2-(difluoromethyl)-8,9-dimethyl-7-(4-(p-tolyloxy)piperidin-1-yl)-4H-pyrimido[1,2-b]pyridazin-4-one] | 101% | 6.41 | – |
| Cc1ccc(OC2CCN(c3nn4c(=O)ccnc4c(C)c3C)CC2)cn1 [Compound 86, 8,9-dimethyl-7-(4-((6-methylpyridin-3-yl)oxy)piperidin-1-yl)-4H-pyrimido[1,2-b]pyridazin-4-one] | 101% | 6.47 | – |
| Cc1c(N2CCC(Oc3ccc(Cl)cc3)CC2)nn2c(=O)ccnc2c1C [Compound 87] | – | 6.57 | 93% |
| Cc1ccc(OC2CCN(c3nn4c(=O)ccnc4cc3C)CC2)cc1F [Compound 88, 7-(4-(3-fluoro-4-methylphenoxy)piperidin-1-yl)-8-methyl-4H-pyrimido[1,2-b]pyridazin-4-one] | 77% | 6.42 | – |
| CCc1ccc(OC2CCN(c3nn4c(=O)ccnc4cc3C)CC2)cc1 [Compound 89, 7-(4-(4-ethylphenoxy)piperidin-1-yl)-8-methyl-4H-pyrimido[1,2-b]pyridazin-4-one] | 76% | 6.30 | – |
| Cc1cc2nccc(=O)n2nc1N1CCC(Oc2ccc(C(C)C)cc2)CC1 [Compound 90, 7-(4-(4-isopropylphenoxy)piperidin-1-yl)-8-methyl-4H-pyrimido[1,2-b]pyridazin-4-one] | 63% | 5.95 | – |
| CCCc1ccc(OC2CCN(c3nn4c(=O)ccnc4cc3C)CC2)cc1 [Compound 91, 8-methyl-7-(4-(4-propylphenoxy)piperidin-1-yl)-4H-pyrimido[1,2-b]pyridazin-4-one] | 70% | 5.97 | – |
| [2H]C1(Oc2ccc(C)cc2)CCN(c2nn3c(=O)ccnc3cc2C)CC1 [Compound 92, 8-methyl-7-(4-(p-tolyloxy)piperidin-1-yl-4-d)-4H-pyrimido[1,2-b]pyridazin-4-one] | 89% | 6.20 | – |
| COCc1ncc(OC2CCN(c3nn4c(=O)ccnc4cc3C)CC2)cc1C [Compound 93, 7-(4-((6-(methoxymethyl)-5-methylpyridin-3-yl)oxy)piperidin-1-yl)-8-methyl-4H-pyrimido[1,2-b]pyridazin-4-one] | 70% | < 5.00 | – |
